Experimental data: patent publication US20130005743A1, “New positive allosteric modulators of nicotinic acetylcholine receptor” (H. Lundbeck A/S, priority 2011, published 2013)

Molecular target: T1, human α7 receptor (Homo sapiens, UniProt P36544)
T1 construct: host or cells: rat GH4C1 cell line
Assay: α7 NNR flux assay (FDSS Ca assay, positive allosteric modulation of acetylcholine response)
Type: cell-based
Conditions: human α7 receptor stably expressed in rat GH4C1 cells; acetylcholine 20 μM; % modulation relative to PNU-120596 set to 100%
Procedure: The nicotinic acetylcholine receptor α7 is a calcium-permeable ion channel, whose activity can be measured by over expression in mammalian cells or oocytes. In this version of the assay, the human α7 receptor is stably expressed in the rat GH4C1 cell line. The assay was used to identify positive allosteric modulators (PAMs) of the α7 receptor. Activation of the channel was measured by loading cells with the calcium-sensitive fluorescent dye. Calcium-4 (Assay kit from Molecular Devices), and then measuring real-time changes, in fluorescence upon treatment with test compounds.
The cell line ChanClone GH4C1-nAChRalpha7 from Genionics was seeded from frozen stock in 384-well plates in culture media 2-3 days before experiment to form an approximately 80% confluent layer on the day of experiment.
The cell culture were split into “22.5 cm×22.5 cm”-plates with approximately 100×10^3 cells/cm^2. After four days incubation in a humidified incubator at 37° C. and 5% CO2, it had grown to an 80-90% confluent layer, and the cells were harvested.
Two or three days before the experiment the cells were seeded in 384 well plates from Greiner bio-one (781946, CELLCOAT, Poly-D-Lysine, black, μClear).
The cells were seeded in 384 well plates with 30 μL/well (30000 cells/well) while stirring the cell suspension or otherwise preventing the cells from precipitating.
The loading buffer was 5% v/v Calcium-4 Kit and 2.5 mM Probenecid in assay buffer.
Culture media was removed from the cell plates and 20 μL loading buffer was added in each well. The cell plates were placed in trays and incubated 90 minutes in the incubator (37° C.). Thereafter the plates were incubated 30 minutes at room temperature, still protected from light.
The assay buffer was HBSS with 20 mM HEPES, pH 7.4 and 3 mM CaCl2.
[…] 10 mM compound solution in DMSO was diluted in 50 μL assay buffer. The final test concentrations in the cell plates were 20-10-5-2.5-1.25-0.625-0.312-0.156-0.078-0.039 μM. Assay buffer and 3 μM PNU-120596 were used for control. The agonist acetylcholine was added to a final concentration of 20 μM (˜EC100). In the FDSS7000 the Ex480-Em540 was measured with 1 second intervals. The baseline was made of 5 frames before addition of test compounds, and 95 frames more were made before addition of acetylcholine. The measurement stopped 30 frames after the 2nd addition. Raw data for each well were collected as “the maximum fluorescence count” in the interval 100-131 seconds and as “the average fluorescence count” in the interval 96-100 seconds. The positive allosteric modulation in the 2nd addition was the enhancement of agonist response with test compound compared to agonist alone.
Results were calculated as % modulation of test compound compared to the reference PNU-120596 set to 100%.

T1 sequence (P36544 23-502): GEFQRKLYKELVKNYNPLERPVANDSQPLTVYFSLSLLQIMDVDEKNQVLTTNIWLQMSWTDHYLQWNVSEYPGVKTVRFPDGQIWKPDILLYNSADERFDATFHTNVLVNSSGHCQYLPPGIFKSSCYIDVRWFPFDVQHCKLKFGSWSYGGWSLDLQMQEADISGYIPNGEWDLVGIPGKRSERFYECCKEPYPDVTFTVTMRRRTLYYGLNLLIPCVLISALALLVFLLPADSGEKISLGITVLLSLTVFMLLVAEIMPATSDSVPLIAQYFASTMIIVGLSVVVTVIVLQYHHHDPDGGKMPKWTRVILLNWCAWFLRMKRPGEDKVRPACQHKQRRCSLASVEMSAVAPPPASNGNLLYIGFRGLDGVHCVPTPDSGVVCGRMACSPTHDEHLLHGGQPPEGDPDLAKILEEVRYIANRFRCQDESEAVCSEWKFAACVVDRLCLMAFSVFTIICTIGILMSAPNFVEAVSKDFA

Row | SMILES | EC50 [µM]
1 | Cc1cc(C(=O)Nc2c(C)ccnc2C)c2c(C)nn(-c3ccccc3)c2n1 [Compound 2, 3,6-Dimethyl-1-phenyl-1H-pyrazolo[3,4-b]pyridine-4-carboxylic acid (2,4-dimethyl-pyridin-3-yl)-amide] | 3.6
2 | Cc1cc(C(=O)Nc2c(C)cncc2C)c2c(C)nn(-c3ccccc3)c2n1 [Compound 3, 3,6-Dimethyl-1-phenyl-1H-pyrazolo[3,4-b]pyridine-4-carboxylic acid (3,5-dimethyl-pyridin-4-yl)-amide] | 4.1
3 | COc1ccccc1-n1nc(C)c2c(C(=O)Nc3c(C)ccnc3C)cc(C)nc21 [Compound 4, 1-(2-Methoxy-phenyl)-3,6-dimethyl-1H-pyrazolo[3,4-b]pyridine-4-carboxylic acid (2,4-dimethyl-pyridin-3-yl)-amide] | 7.1
4 | COc1ccc(-n2nc(C)c3c(C(=O)Nc4cccnc4C)cc(C)nc32)cc1 [Compound 5, 1-(4-Methoxy-phenyl)-3,6-dimethyl-1H-pyrazolo[3,4-b]pyridine-4-carboxylic acid (2-methyl-pyridin-3-yl)-amide] | 3.3
5 | Cc1ccc(-n2nc(C)c3c(C(=O)Nc4c(C)ccnc4C)cc(C)nc32)cc1 [Compound 6, 3,6-Dimethyl-1-p-tolyl-1H-pyrazolo[3,4-b]pyridine-4-carboxylic acid (2,4-dimethyl-pyridin-3-yl)-amide] | 2.5
6 | COc1ccc(-n2nc(C)c3c(C(=O)Nc4c(C)ccnc4OC)cc(C)nc32)cc1 [Compound 7, 1-(4-Methoxy-phenyl)-3,6-dimethyl-1H-pyrazolo[3,4-b]pyridine-4-carboxylic acid (2-methoxy-4-methyl-pyridin-3-yl)-amide] | 2.2
7 | COc1ccc(-n2nc(C)c3c(C(=O)Nc4cnccc4C)cc(C)nc32)cc1 [Compound 8, 1-(4-Methoxy-phenyl)-3,6-dimethyl-1H-pyrazolo[3,4-b]pyridine-4-carboxylic acid (4-methyl-pyridin-3-yl)-amide] | 5.1
8 | COc1cccc(-n2nc(C)c3c(C(=O)Nc4c(C)ccnc4C)cc(C)nc32)c1 [Compound 9, 1-(3-Methoxy-phenyl)-3,6-dimethyl-1H-pyrazolo[3,4-b]pyridine-4-carboxylic acid (2,4-dimethyl-pyridin-3-yl)-amide] | 4
9 | Cc1ccc(-n2nc(C)c3c(C(=O)Nc4c(C)ccnc4C)cc(C)nc32)cn1 [Compound 10, 3,6-Dimethyl-1-(6-methyl-pyridin-3-yl)-1H-pyrazolo[3,4-b]pyridine-4-carboxylic acid (2,4-dimethyl-pyridin-3-yl)-amide] | 7.2
10 | COc1ccc(-n2ncc3c(C(=O)Nc4c(C)ccnc4C)cc(C)nc32)cc1 [Compound 11, 1-(4-Methoxy-phenyl)-6-methyl-1H-pyrazolo[3,4-b]pyridine-4-carboxylic acid (2,4-dimethyl-pyridin-3-yl)-amide] | 2.8
11 | COc1ccc(-n2nc(C)c3c(C(=O)Nc4c(C)ncnc4C)cc(C)nc32)cc1 [Compound 12, 1-(4-Methoxy-phenyl)-3,6-dimethyl-1H-pyrazolo[3,4-b]pyridine-4-carboxylic acid (4,6-dimethyl-pyrimidin-5-yl)-amide] | 4.9
12 | Cc1cc(C(=O)Nc2c(C)ccnc2C)c2c(C)nn(-c3ccc(F)cc3)c2n1 [Compound 13, 1-(4-Fluoro-phenyl)-3,6-dimethyl-1H-pyrazolo[3,4-b]pyridine-4-carboxylic acid (2,4-dimethyl-pyridin-3-yl)-amide] | 7.8
13 | Cc1cc(C(=O)Nc2c(C)ccnc2C)c2c(C)nn(-c3ccc(C#N)cc3)c2n1 [Compound 14, 1-(4-Cyano-phenyl)-3,6-dimethyl-1H-pyrazolo[3,4-b]pyridine-4-carboxylic acid (2,4-dimethyl-pyridin-3-yl)-amide] | 6.3
14 | COc1ccc(-n2nc(C)c3c(C(=O)Nc4c(C)ccnc4C)ccnc32)cc1 [Compound 15, 1-(4-Methoxy-phenyl)-3-methyl-1H-pyrazolo[3,4-b]pyridine-4-carboxylic acid (2,4-dimethyl-pyridin-3-yl)-amide] | 6
15 | COc1ccc(-n2nc(C)c3c(C(=O)Nc4c(C)ccnc4C)cc(C)nc32)cn1 [Compound 16, 1-(6-Methoxy-pyridin-3-yl)-3,6-dimethyl-1H-pyrazolo[3,4-b]pyridine-4-carboxylic acid (2,4-dimethyl-pyridin-3-yl)-amide] | 5.5
16 | Cc1cc(C(=O)Nc2c(C)ccnc2C)c2c(C)nn(-c3ccc(OC(F)(F)F)cc3)c2n1 [Compound 17, 3,6-Dimethyl-1-(4-trifluoromethoxy-phenyl)-1H-pyrazolo[3,4-b]pyridine-4-carboxylic acid (2,4-dimethyl-pyridin-3-yl)-amide] | 11
17 | COc1ccc(-n2nc(C)c3c(C(=O)Nc4c(C)cc(C)nc4C)cc(C)nc32)cc1 [Compound 18, 1-(4-Methoxy-phenyl)-3,6-dimethyl-1H-pyrazolo[3,4-b]pyridine-4-carboxylic acid (2,4,6-trimethyl-pyridin-3-yl)-amide] | 6.5
18 | Cc1cc(C(=O)Nc2c(C)ccnc2C)c2c(C)nn(-c3ccc(OC(F)F)cc3)c2n1 [Compound 19, 1-(4-Difluoromethoxy-phenyl)-3,6-dimethyl-1H-pyrazolo[3,4-b]pyridine-4-carboxylic acid (2,4-dimethyl-pyridin-3-yl)-amide] | 3.3
19 | COc1ccc(-n2nc(C)c3c(C(=O)Nc4cncnc4C)cc(C)nc32)cc1 [Compound 20, 1-(4-Methoxy-phenyl)-3,6-dimethyl-1H-pyrazolo[3,4-b]pyridine-4-carboxylic acid (4-methyl-pyrimidin-5-yl)-amide] | 4.6
20 | Cc1cc(C(=O)Nc2c(C)ccnc2C)c2c(C)nn(-c3ccc(N(C)C)cc3)c2n1 [Compound 23, 1-(4-Dimethylamino-phenyl)-3,6-dimethyl-1H-pyrazolo[3,4-b]pyridine-4-carboxylic acid (2,4-dimethyl-pyridin-3-yl)-amide] | 3.6
21 | Cc1cc(C(=O)Nc2c(C)ccnc2C)c2c(C)nn(-c3ccsc3)c2n1 [Compound 25, 3,6-Dimethyl-1-thiophen-3-yl-1H-pyrazolo[3,4-b]pyridine-4-carboxylic acid (2,4-dimethyl-pyridin-3-yl)-amide] | 7.2
22 | Cc1cc(C(=O)Nc2c(C)ccnc2C)c2c(C)nn(-c3cncnc3)c2n1 [Compound 26, 3,6-Dimethyl-1-pyrimidin-5-yl-1H-pyrazolo[3,4-b]pyridine-4-carboxylic acid (2,4-dimethyl-pyridin-3-yl)-amide] | 11
23 | COc1ccnc(C)c1NC(=O)c1cc(C)nc2c1c(C)nn2-c1ccccc1 [Compound 28, 3,6-Dimethyl-1-phenyl-1H-pyrazolo[3,4-b]pyridine-4-carboxylic acid (4-methoxy-2-methyl-pyridin-3-yl)-amide] | 6.5
24 | COc1ccc(-n2nc(C)c3c(C(=O)Nc4cnccc4N(C)C)cc(C)nc32)cc1 [Compound 30, 1-(4-Methoxy-phenyl)-3,6-dimethyl-1H-pyrazolo[3,4-b]pyridine-4-carboxylic acid (4-dimethylamino-pyridin-3-yl)-amide] | 2.7
25 | COc1ccc(-n2nc(C)c3c(C(=O)Nc4cnc(C)cc4C)cc(C)nc32)cc1 [Compound 33, 1-(4-Methoxy-phenyl)-3,6-dimethyl-1H-pyrazolo[3,4-b]pyridine-4-carboxylic acid (4,6-dimethyl-pyridin-3-yl)-amide] | 8.9
26 | Cc1cc(C(=O)Nc2c(C)ccnc2C)c2c(C)nn(-c3ccc(O)cc3)c2n1 [Compound 37, 1-(4-Hydroxy-phenyl)-3,6-dimethyl-1H-pyrazolo[3,4-b]pyridine-4-carboxylic acid (2,4-dimethyl-pyridin-3-yl)-amide] | 9.5
